Approximate solubility data for one compound are collected here from patent publication US20220324833A1, “PROCESS FOR PREPARATION OF 2-HYDROXY-6-((2-(1-ISOPROPYL-1H-PYRAZOL-5-YL)PYRIDIN-3-YL)METHOXY)BENZALDEHYDE” (Global Blood Therapeutics, Inc., priority 2020, published 2022).

A short description of the data set: Approximate solubility at ambient temperature. Type of data set: physicochemical. How it is done: Approximate solubility values were measured for the as-received material at ambient temperature. […] The approximate solubility values were considered in the design of form screen experiments.

Structures are written as SMILES.

Regarding `CC(C)n1nccc1-c1ncccc1CO` [compound (3)], the approximate solubility entry reads like this: (MTBE, toluene, water, and select solvent mixtures) “Limited to intermediate solubility”; (heptane) “low solubility”; (most of the organic solvents tested) “high solubility”.
